Consider 36 molecules from patent US8852876B2, “Label free biosensors and cells” (Corning Incorporated, priority 2008, dated 2014).

Entries after “also recorded” stand apart in the source; their conditions may differ. Like-named read-outs stand apart in the source and are kept apart here. Where no end group is shown, it is not given here.

Common to all, as to format: cell-based, human
In test [1] the test system is endogenous GPCRs in A431 cells. Nature of the test: DMR optical biosensor profiling of GPCR agonists. To be noted: for Class of optical signature (DMR) induced by agonist: quiescent A431, first class = Gq-type, second = Gs-type, third = Gi-type, fourth = no significant DMR; for Dose-dependent switching of optical signature: fully quiescent A431 cells.
The test system of test [2] is protease activated receptors PAR1 and PAR2. The settings on record: 40 unit/ml thrombin, 200 nM trypsin; αCD up to 8 mM. As for the experimental part: Human epidermoid carcinoma A431 cells (American Type Cell Culture) were grown in Dulbecco's modified Eagle's medium (DMEM) supplemented with 10% fetal bovine serum (FBS), 4.5 g/liter glucose, 2 mM glutamine, and antibiotics. ˜3-7.5×10^4 cells at passage 3 to 5 suspended in 200 μl the DMEM medium containing 10% FBS were placed in each well of a 96 well microplate, and were cultured at 37° C. under air/5% CO2 until ˜95% confluency was reached (˜2-4 days).
The compound or PAR agonist solutions were made in 1×HBSS in order to match the refractive index between the cell medium and compound solution, thus minimizing the unwanted effect of bulk index change due to the introduction of compound solution which can temporarily overwhelms any DMR signal as it occurs.

Test [3] has the same test system. The test can be described thus: Fluo-3 Ca2+ mobilization assay with PAR agonists. The settings on record: cholesterol depletion; αCD up to 8 mM. The protocol:
A431 at passage 3 to 5 were grown in Costar™ 96 well clear cell culture microplates until ˜95% confluency, washed twice and starved overnight with the DMEM only, washed with 1×HBSS (1× regular Hank's balanced salt solution, 20 mM HEPES buffer, pH 7.0) in the presence of 2.5 mM probenicid, and labeled in the same buffer containing 4 μM Fluo-3 for 1 hour at room temperature. The cells were then washed twice with buffer, maintained with 100 μl 1×HBSS containing 2.5 mM probenicid. The assay was initiated by transferring 50 μl PAR agonist solution to the cell plate, and calcium signal was recorded over 6 minutes with a 6 sec interval using HTS7000 BioAssay Reader (PerkinElmer Life Science, Boston, Mass.). The assays were carried out at room temperature in order to allow direct comparison with optical sensing data.
(A change in cytosolic calcium serves as a functional read-out for many receptors and channels.)

Test [4] has as its system EGF-induced response of quiescent A431 cells. The test can be described thus: Effect of compound pretreatment on EGF-induced DMR response. The settings on record: for Effect of pre-treatment on EGF-induced P-DMR and N-DMR signals: starved A431 cells, 8 nM EGF, 30-minute pretreatment, GH 0.5 ng/ml, PD98059 0.1 mM, PP1 1 μM, wortmannin 0.1 μM, DIP 50 μM. The protocol: Both A431 and CHO-K1 cells were grown in Dulbecco's modified Eagle's medium (DMEM) supplemented with 10% fetal calf serum, 100 μg/ml penicillin, and 100 μg/ml streptomycin. For cell culture, certain numbers of cells (2×10^5 to 1×10^6), either A431 or CHO-K1, were suspended in […] medium were placed in each well of a 96 well Corning Epic Biosensor microplate, and were cultured at 37° C. in air/5% CO2 for certain time until the cell density reached ˜90% and above (unless specified). The resulted cells were termed as “profilerating” cells. The “quiescent” cells were obtained by culturing the profilerating cells of desired confluencies with a medium containing no or little (˜0.1% fetal bovine serum (FBS)) for at least 16 hours.
During the assays, the cells in 100 μl medium were subject to two 25 μl HBSS buffer containing 20 mM HEPES, pH 7.4, each separated by at least 15 minutes before 50 μl stimulus-containing solution was applied. During all these steps, a parallel angular interrogation system was used to monitor the real time kinetics of cellular responses. For compound effect studies, a modified protocol was used which starts with 50 μl medium, and subject to sequential treatment: 25 μl HBSS buffer twice (each separated by at least 15 minutes), 50 μl compound solution and finally 50 μl stimulus-containing solution.

Setting [5] is: quiescent A431 cells, 32 nM EGF.

With `CC[C@H](C)[C@H](NC(=O)[C@@H]1CCCN1C(=O)[C@@H](NC(=O)[C@@H](N)Cc1ccccc1)C(C)C)C(=O)N[C@@H](Cc1ccccc1)C(=O)N[C@H](C(=O)N[C@@H](Cc1ccc(O)cc1)C(=O)NCC(=O)N[C@@H](CCC(=O)O)C(=O)N[C@@H](CC(C)C)C(=O)N[C@@H](CCC(N)=O)C(=O)N[C@@H](CCCNC(=N)N)C(=O)N[C@@H](CCSC)C(=O)N[C@@H](CCC(N)=O)C(=O)N[C@@H](CCC(=O)O)C(=O)N[C@@H](CCCCN)C(=O)N[C@@H](CCC(=O)O)C(=O)N[C@@H](CCCNC(=N)N)C(=O)N[C@@H](CC(N)=O)C(=O)N[C@@H](CCCCN)C(=O)NCC(=O)N[C@@H](CCC(N)=O)C(=O)O)[C@@H](C)O` [motilin], the “Class of optical signature (DMR) induced by agonist” value (“Class of optical signature” below) in test [1] was “did not exhibited any significant DMR signals”.

On to methyl-β-cyclodextrin [mβCD], for which the “Effect of pretreatment on DMR induced by thrombin or trypsin” value in test [2] is on record as “a dose-dependent alteration of the optical signatures induced by thrombin or trypsin”. In test [3], the “Effect of pretreatment on [Ca2+]i elevation mediated by trypsin or thrombin” value was “a dose-dependent suppression of [Ca^2+]i elevation mediated by either trypsin or thrombin”.

`CCCCCCOC(=O)[C@]1(O)C[C@@H]2O[C@@]1(C)n1c3ccccc3c3c4c(c5c6ccccc6n2c5c31)C(=O)NC4` [KT 5720]: in test [4] (setting [5]), the “Effect of pretreatment on 32 nM EGF-induced response” value is recorded as “little effect on the response”.

Take `COc1cccc(-c2cc(=O)c3ccccc3o2)c1N` [PD98059]: the “Effect of pre-treatment on EGF-induced P-DMR and N-DMR signals” value in test [4] was “significantly reduced both the binding and DMR signals”.

Consider apelin 1-13, for which the “Class of optical signature” value in test [1] was “did not exhibited any significant DMR signals”.

As for `CNC[C@H](O)c1ccc(O)c(O)c1` [epinephrine], the “Class of optical signature” value in test [1] was “second class of optical signatures”.

As for `CCCCOc1cc(CC2CNC(=O)N2)ccc1OC` (centres unmarked) [Ro 20-1724], the “Effect of pretreatment on 32 nM EGF-induced response” value in test [4] (setting [5]) is listed as “None of these inhibitors had an obvious effect on the responses”.

For “neurokinin A (HKTDSFVGLM; ends and bridges not checked; UniProt P20366 98-107, looked up) [agonist, TACR2]”, the “Class of optical signature” value in test [1] was “did not exhibited any significant DMR signals”.

In the case of `Brc1c(NC2=NCCN2)ccc2nccnc12` [UK14304], the “Class of optical signature” value in test [1] is recorded as “did not exhibited any significant DMR signals”.

For `N#CC(=C(/N)Sc1ccccc1N)/C(C#N)=C(\N)Sc1ccccc1N` [U0126], in test [4], the “Effect of pretreatment on 32 nM EGF-induced response” value was “significantly compressed the amplitudes of both the P-DMR and N-DMR signals with a delayed time τ”.

As for “dynorphin A (YGGFLRRIRPKLKWDNQ; Dynorphin A(1-17); UniProt P01213 207-223, looked up) [agonist, OPRM1 and OPRK1]”, the “Class of optical signature” value in test [1] is on record as “did not exhibited any significant DMR signals”.

For “Angiotensin II (DRVYIHPF; Angiotensin-2; UniProt P01019 25-32, looked up) [agonist, AGTR1]”, the “Class of optical signature” value in test [1] was “did not exhibited any significant DMR signals”.

On to “neuromedin N (IPYIL; Neuromedin N; UniProt P30990 144-148, looked up) [agonist, NTSR1]”, for which the “Class of optical signature” value in test [1] is given as “did not exhibited any significant DMR signals”.

`C[C@@H](NC(=O)[C@@H](N)Cc1ccc(O)cc1)C(=O)NCC(=O)N(C)[C@@H](Cc1ccccc1)C(=O)NCCO` [DAMGO]: the “Class of optical signature” value in test [1] was “did not exhibited any significant DMR signals”.

Turning to oleoyl-L-α-lysophosphatidic acid [LPA], in test [1], the “Dose-dependent switching of optical signature” value is listed as “typical Gi-type optical signature at low doses of LPA; also recorded: switched to Gq-type optical signature at high doses of LPA” and the “Class of optical signature” value was “third class of optical signatures”.

On to `CCCCC/C=C\C/C=C\C/C=C\C/C=C\CCCC(=O)NCCO` [anandamide], for which the “Class of optical signature” value in test [1] was “did not exhibited any significant DMR signals”.

As for `Cc1cc(C(C)(C)C)c(O)c(C)c1CC1=NCCN1` [oxymetazoline], the “Class of optical signature” value in test [1] is “did not exhibited any significant DMR signals”.

With neuropeptide Y, the “Class of optical signature” value in test [1] is recorded as “did not exhibited any significant DMR signals”.

Take `NC[C@@H]1O[C@H](C23CC4CC(CC(C4)C2)C3)Cc2c1ccc(O)c2O` [A-77636]: the “Class of optical signature” value in test [1] is given as “did not exhibited any significant DMR signals”.

As for “interferon-γ-inducible protein-10 [IP-10]”, in test [1], the “Class of optical signature” value is recorded as “did not exhibited any significant DMR signals”.

Consider glucagon, for which the “Class of optical signature” value in test [1] was “did not exhibited any significant DMR signals”.

On to `C[S+]([O-])c1ccc(-c2nc(-c3ccncc3)c(-c3ccc(F)cc3)[nH]2)cc1` (centres unmarked) [SB203580], for which, in test [4], the “Effect of pretreatment on 32 nM EGF-induced response” value is “only led to a partial attenuation”.

For the molecule `CC(C)NCC(O)c1ccc(O)c(O)c1` (centres unmarked) [isoprenternol], the “Class of optical signature” value in test [1] is reported as “second class of optical signatures”.

In the case of growth hormone, the “Effect of pre-treatment on EGF-induced P-DMR and N-DMR signals” value in test [4] is “significantly reduced both the binding and DMR signals”.

For the molecule `Cc1[nH]c(=O)c(C#N)cc1-c1ccncc1` [milrinone], in test [4] (setting [5]), the “Effect of pretreatment on 32 nM EGF-induced response” value is “None of these inhibitors had an obvious effect on the responses”.

In the case of apelin 1-17, the “Class of optical signature” value in test [1] is “did not exhibited any significant DMR signals”.

In the case of `CC(CCCCC(=O)Nc1ccc(C(F)(F)F)cc1)NCCc1cnc[nH]1` (centres unmarked) [HTMT], in test [1], the “Dose-dependent switching of optical signature” value is “At low doses (<˜40 nM), HTMT dose-dependently resulted in a typical Gi-type optical signature; also recorded: became almost steady (i.e., no obvious DMR); also recorded: switching to a typical Gs-type optical signature”.

On to `COC(=O)[C@@]1(OC)C[C@H]2O[C@]1(C)n1c3ccccc3c3c4c(c5c6ccccc6n2c5c31)C(=O)N(C)C4` [KT5823], for which, in test [4] (setting [5]), the “Effect of pretreatment on 32 nM EGF-induced response” value is listed as “little effect on the response”.

As to `CN(C(=O)CCCOc1ccc2[nH]c(=O)ccc2c1)C1CCCCC1` [cilostamide], the “Effect of pretreatment on 32 nM EGF-induced response” value in test [4] (setting [5]) was “None of these inhibitors had an obvious effect on the responses”.

Regarding `CN1CCC(c2c[nH]c3ccc(O)cc23)CC1` [BRL 54443], in test [1], the “Class of optical signature” value was “did not exhibited any significant DMR signals”.

In the case of `Oc1ccc(-c2nc(-c3ccc(F)cc3)c(-c3ccncc3)[nH]2)cc1` [SB20219], the “Effect of pretreatment on 32 nM EGF-induced response” value in test [4] (setting [5]) is listed as “only led to a partial attenuation”.

On to interleukin-8, for which the “Class of optical signature” value in test [1] is recorded as “did not exhibited any significant DMR signals”.

For the molecule `Oc1cc2c(cc1O)C(c1ccccc1)CNCC2` (centres unmarked) [SKF38392], in test [1], the “Class of optical signature” value is reported as “did not exhibited any significant DMR signals”.

In the case of “endothelin-1 (CSCSSLMDKECVYFCHLDIIW; ends and bridges not checked; cysteine pairing not given here; UniProt P05305 53-73, looked up) [agonist, EDNRA and EDNRB]”, in test [1], the “Class of optical signature” value is “did not exhibited any significant DMR signals”.

Turning to R(−)-rolipram, the “Effect of pretreatment on 32 nM EGF-induced response” value in test [4] (setting [5]) is “None of these inhibitors had an obvious effect on the responses”.

Take “substance P (RPKPQQFFGLM; ends and bridges not checked; UniProt P20366 58-68, looked up) [agonist, TACR1]”: the “Class of optical signature” value in test [1] is on record as “did not exhibited any significant DMR signals”.
